Laboratory results reported in patent publication US20160199481A1 (priority 2013, published 2016).
Entries after “also recorded” stand apart in the source; their conditions may differ.

What was measured:
WT HA/WT NA virus [1] = type: cell-based, influenza A
WT HA/WT NA virus [2] = type: cell-based, influenza A; remark: listed apart in the source

oseltamivir
inhibition of agglutination by oseltamivir (WT HA/WT NA virus [1]): uninhibited at all oseltamivir concentrations tested
neutralization of infectivity (percent infectivity remaining) (WT HA/WT NA virus [2]): resistant to neutralization by oseltamivir; also recorded: uninhibited at all concentrations tested
